{"source": "patent US20110262436A1", "about": "“TREATMENT METHOD” (Genentech, Inc., priority 2008, published 2011)", "key": {"[1]": {"tested_on": "KP4 human pancreatic ductal cell carcinoma cells", "assay": "Dose response study in KP4 xenograft mice", "assay_type": "in vivo", "conditions": "from Day 21 effect vs. dose profile", "experimental": "In a dose response study, female nude (nu/nu) mice (age 6-8 weeks) were inoculated subcutaneously (SC) with 5×10^6 KP4 human pancreatic ductal cell carcinoma cells.\n(§1) In all cases, tumors were measured with calipers throughout the study."}, "KP4 xenograft": {"tested_on": "KP4 xenograft", "assay": "PK/PD model of anti-tumor efficacy in KP4 xenograft mice (MTC)", "conditions": "individual MTC values (n=177) KP4 mice", "experimental": "PK parameter estimates were used as a forcing function to model the pharmacodynamic (PD) endpoint of tumor progression (PD) in KP4 xenograft mice.\nTumor measurements were taken via with calipers, and mice entered the study with tumor volumes of approximately 200 mm^3. Study data up to 21 days from a total of 177 KP4 mice were used in the modeling analysis. Tumor volumes (mm^3) were converted to mass (mg) assuming 1 mm^3=1 mg tumor tissue. A mixed effects PK/pharmacodynamic (PD) model describing anti-tumor efficacy in KP4 xenograft mice was fit to the tumor data using NONMEM software (Double Precision, version V, level 1.0 UCSF, San Francisco Calif.).\nMTC is calculated from the differential equation describing tumor mass where (dTM(t)/dt=0)"}, "c-met [2]": {"tested_on": "c-met", "assay": "Binding to c-met in cynomolgus monkeys"}, "[3]": {"assay": "PK study, single IV dose in cynomolgus monkeys", "assay_type": "in vivo", "experimental": "(§2) PK studies. PK studies were conducted in mice, rats, and cynomolgus monkeys.\nPharmacokinetic Assay for MetMAb in Cynomolgus Monkey Serum. A direct ELISA was developed to quantitate MetMAb in cynomolgus monkey serum. Plates were coated with a His-tagged c-met extracellular domain fragment, and diluted samples, standards, and controls were added to the coated plates. F(Ab′)2 fragmented, goat anti-human IgG Fc antibodies conjugated to HRP were added for detection. TMB peroxidase was stopped with […]. The plates were read at an absorbance of 450 nm and 620/630 nm.\nThe lower limit of quantification of the assay was 1.0 ng/ml and the upper limit of quantification was 32.0 ng/ml. The minimum dilution for neat cynomolgus monkey serum samples was 1/50, resulting in a minimum quantifiable concentration of 50 ng/ml, with an indefinite upper limit.\n(§3) Mouse, Rat, and Cynomolgus Monkey PK data analysis. […] PK parameters were estimated using WinNonlin Enterprise Version 5.0.1 (Pharsight Corp., Mountain View, Calif.). The nominal dose administered for each group was used for modeling. Since a single concentration-time profile for mice was determined for each group, one estimate of each PK parameter was obtained and is reported, along with the standard error (SE) of the fit of each PK parameter. For rats and monkeys, PK parameters are reported as mean (+/−SD).\n(§4) For IV administrations, a two-compartment elimination model with IV bolus input and first-order elimination was used to describe the observed data (WinNonlin Model 7). Concentrations were weighted using iterative reweighting (1/ŷ^2) and the Nelder-Mead minimization algorithm. The following equation was used to calculate concentration over time in Model 7: […]"}, "c-met [4]": {"molecular_target": "c-met (Mus musculus, UniProt P16056)", "sequence (P16056 25-1379)": "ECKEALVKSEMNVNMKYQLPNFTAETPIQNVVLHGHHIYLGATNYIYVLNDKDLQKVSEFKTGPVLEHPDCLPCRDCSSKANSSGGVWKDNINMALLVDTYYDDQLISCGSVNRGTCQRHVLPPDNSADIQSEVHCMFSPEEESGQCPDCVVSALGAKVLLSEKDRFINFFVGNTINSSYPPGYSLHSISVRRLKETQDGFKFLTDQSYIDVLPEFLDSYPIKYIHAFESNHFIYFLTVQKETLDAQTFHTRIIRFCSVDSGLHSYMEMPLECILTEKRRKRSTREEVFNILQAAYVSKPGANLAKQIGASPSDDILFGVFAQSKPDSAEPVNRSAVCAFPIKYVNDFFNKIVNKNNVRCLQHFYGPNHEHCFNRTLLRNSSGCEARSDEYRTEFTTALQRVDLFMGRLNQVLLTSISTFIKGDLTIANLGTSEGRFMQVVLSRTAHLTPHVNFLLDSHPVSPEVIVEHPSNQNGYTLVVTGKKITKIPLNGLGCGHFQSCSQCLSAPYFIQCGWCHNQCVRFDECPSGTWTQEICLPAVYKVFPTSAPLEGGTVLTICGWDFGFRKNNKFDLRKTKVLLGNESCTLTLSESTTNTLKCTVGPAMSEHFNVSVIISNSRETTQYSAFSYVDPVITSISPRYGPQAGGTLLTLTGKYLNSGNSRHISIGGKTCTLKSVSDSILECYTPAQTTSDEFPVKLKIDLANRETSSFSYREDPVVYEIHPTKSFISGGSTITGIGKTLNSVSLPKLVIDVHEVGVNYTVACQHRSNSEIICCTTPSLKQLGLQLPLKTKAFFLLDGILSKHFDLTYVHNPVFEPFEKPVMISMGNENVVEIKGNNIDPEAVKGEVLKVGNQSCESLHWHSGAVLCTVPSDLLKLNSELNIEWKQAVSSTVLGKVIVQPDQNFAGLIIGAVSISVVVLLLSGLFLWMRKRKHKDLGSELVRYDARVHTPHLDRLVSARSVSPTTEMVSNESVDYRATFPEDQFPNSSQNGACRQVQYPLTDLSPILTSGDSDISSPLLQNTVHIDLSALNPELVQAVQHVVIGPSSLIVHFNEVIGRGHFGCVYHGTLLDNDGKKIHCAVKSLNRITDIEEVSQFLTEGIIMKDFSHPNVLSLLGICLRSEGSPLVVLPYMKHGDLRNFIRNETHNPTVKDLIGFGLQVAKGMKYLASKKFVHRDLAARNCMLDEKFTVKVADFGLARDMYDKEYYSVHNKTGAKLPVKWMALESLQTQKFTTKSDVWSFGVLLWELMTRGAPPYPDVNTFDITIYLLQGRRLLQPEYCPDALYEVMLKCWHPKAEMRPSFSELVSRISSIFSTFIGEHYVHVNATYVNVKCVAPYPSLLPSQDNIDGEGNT", "assay": "Binding to c-met in mice"}, "[5]": {"tested_on": "locally advanced or metastatic solid tumors", "assay": "Phase I study: anti-tumor activity (RECIST)", "assay_type": "in vivo, humans", "experimental": "The following activity outcome measures are assessed: objective response, defined as a complete or partial response confirmed≧4 weeks after initial documentation; duration of objective response; and progression-free survival. Objective response and disease progression will be determined using RECIST.\nPatient selection criteria."}, "IL-8": {"tested_on": "IL-8", "assay": "Phase I study: serum IL-8 levels by electrochemiluminescence", "assay_type": "in vivo, humans", "experimental": "Pre- and post-dose serum is collected for evaluation of pharmacodynamic (PD) biomarkers that could be affected by inhibition of Met signaling. In addition, archival tissue is obtained for exploratory diagnostic assessments.\nSerum IL-8 levels (diluted 1:5) were determined using an electrochemiluminescence based method as directed by the manufacturer (Meso Scale Discovery, Gaithersburg Md.; Cat. No. K111ANC)."}, "[6]": {"assay": "Phase I dose-escalation study: pharmacokinetics", "assay_type": "in vivo, humans", "conditions": "patients", "experimental": "Study design. There are two stages to this study, a dose-escalation stage and an expansion stage.\nStudy treatment. […] Dose levels tested in Phase I were: 1 mg/kg, 4 mg/kg, 10 mg/kg, 20 mg/kg, and 30 mg/kg.\nMetMAb was administered as an IV infusion. […] The MetMAb infusion was slowed or interrupted for patients experiencing infusion-associated symptoms.\nPharmacokinetics of the study drug were determined by serially monitoring of serum samples for MetMAb throughout the study."}, "[7]": {"assay": "Estimation of human PK by allometric scaling", "parameters": "species or system humans", "excerpt": "Estimation of Human PK Profile.\nOne approach was allometric scaling, which is based on the assumption that many physical and physiological parameters vary according to a mathematical function of body weight (BW)\nY=a×BWb • where Y is the variable of interest, a is the y-axis intercept, and b is slope.\nThe log plot of CL value versus body weight, repression, and R-squared values were generated by KaleidaGraph (version 3.6)."}, "[8]": {"assay": "PK studies in mice, rats, and cynomolgus monkeys (stated across species)", "assay_type": "in vivo", "conditions": "cynomolgus monkeys", "experimental": "as §2, §3, §4"}, "[9]": {"tested_on": "KP4 human pancreatic ductal cell carcinoma cells", "assay": "Dose fractionation study in KP4 xenograft mice", "assay_type": "in vivo", "conditions": "total 2.5, 7.5 or 30 mg/kg as Q1W, Q2W or Q3W", "experimental": "For example, a 30 mg/kg total dose was given as 10 mg/kg Q1W, 15 mg/kg Q2W, or 30 mg/kg Q3W.\nas §1"}}, "data": [{"substance": "MetMAb: recombinant, humanized, monovalent (one-armed) monoclonal antibody directed against human c-met", "values": [{"measurement": "Median efficacious dose (representative)", "setting": "[1]", "value": 7.5, "unit": "mg/kg"}, {"measurement": "Minimal efficacious dose (representative)", "setting": "[1]", "value": 2.5, "unit": "mg/kg"}, {"measurement": "MTC, 90% of values", "setting": "KP4 xenograft", "value": "below 110 μg/mL"}, {"measurement": "Median MTC (Minimum Tumorostatic Concentration)", "setting": "KP4 xenograft", "value": "approximately 15 μg/mL"}, {"measurement": "Binding to c-met", "setting": "c-met [2]", "value": "binds to c-met"}, {"measurement": "Terminal Half-Life", "setting": "[3]; Cynomolgus monkey", "value": 97.2, "unit": "h"}, {"measurement": "V1", "setting": "[3]; Cynomolgus monkey", "value": 0.0338, "unit": "L/kg"}, {"measurement": "Vss", "setting": "[3]; Cynomolgus monkey", "value": 0.0703, "unit": "L/kg"}, {"measurement": "CL", "setting": "[3]; Cynomolgus monkey (n = 4), linear dose range", "value": 13.4, "unit": "mL/day/kg"}, {"measurement": "Binding to c-met", "setting": "c-met [4]", "value": "does not bind to c-met"}, {"measurement": "Progressive disease (patients)", "setting": "[5]; 21 patients, dose escalation stage", "value": "Three"}, {"measurement": "Response of patient 11009", "setting": "[5]; gastric adenocarcinoma with metastatic liver lesion, CT Jun. 13, 2008, confirmed July 2008", "value": "complete response"}, {"measurement": "Complete, objective response (patients)", "setting": "[5]; gastric cancer patient, 20 mg/kg cohort", "value": "one"}, {"measurement": "Reduction in circulating IL-8", "setting": "IL-8; 24 h following treatment, subjects with baseline IL-8 >50 pg/ml", "value": "> 50", "unit": "%"}, {"measurement": "Change in serum IL8 following MetMAb infusions", "setting": "IL-8; most patients with baseline serum IL8 above normal controls", "value": "decrease in serum IL8"}, {"measurement": "Change in IL-8 expression post-MetMAb treatment", "setting": "IL-8; subjects with less than 50 pg/ml baseline IL-8", "value": "did not change significantly"}, {"measurement": "Inter-individual variability of serum concentrations at each dose level", "setting": "[6]", "value": "less than 30%"}, {"measurement": "Clearance compared to the other dose groups", "setting": "[6]; 1 mg/kg dose", "value": "slightly faster clearance"}, {"measurement": "Half-life", "setting": "[6]; IV Q3W", "value": "approximately 10 days"}, {"measurement": "PK linearity", "setting": "[6]; dose range 4 to 30 mg/kg", "value": "linear pharmacokinetics"}, {"measurement": "Predicted clearance in humans", "setting": "[7]", "value": 10, "unit": "mL/day/kg"}, {"measurement": "Beta half-life", "setting": "[8]", "value": "96 to 120", "unit": "h"}, {"measurement": "Efficacy at the same dose level with different dose regimens", "setting": "[9]", "value": "similar"}]}]}
